Values joined by “and” are separate entries in the source; they are usually repeats but may differ in a detail not shown here. Identical values can stand only once.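 Exposure lasted 48 hours, with cells grown in 96-well plates and compounds tested at five concentrations. GI50: concentration for 50% inhibition of growth. TGI: total growth inhibition.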
Key:
Test in all cases: NCI-60 cell line screen, 48 h
[1] = test system: NCI-H226 lung
[2] = test system: U251 CNS
[3] = test system: HL-60(TB) leukemia
[4] = test system: NCI-H460 lung
[5] = test system: NCI-H23 lung
[6] = test system: TK-10 renal
[7] = test system: SF-295 CNS
[8] = test system: UO-31 renal
[9] = test system: LXFL 529 NSCLC
[10] = test system: M19-MEL melanoma

Row | Compound | GI50 [1] | TGI [1] | GI50 [2] | TGI [2] [µM] | TGI [3] | GI50 [4] | TGI [4] | GI50 [5] | TGI [5] [µM] | TGI [6] | GI50 [7] | TGI [7] | GI50 [8] | TGI [8] | TGI [9] [µM] | GI50 [3] [µM] | GI50 [6] [µM] | TGI [10] [µM]
1 | COc1cc(-c2oc3c(OC)c(OC)cc(O)c3c(=O)c2OC)ccc1O | 3.88 µM and 12.4 µM | 9.68 µM and > 50 µM | 5.97 µM and 12.7 µM | > 100 | 7.58 µM | 4 µM and 8.51 µM | > 100 µM | 7.38 µM and 35.1 µM | > 100 | 22.8 µM and 40.2 µM | 3.24 µM and 8.34 µM | > 100 µM and 38.1 µM | 3.88 µM and 8.21 µM | > 100 µM | > 100 |  |  | 
2 | C#CCN1CCN(C(=S)N/N=C(\C)c2ccccn2)CC1 |  | 4.66 µM | 0.0126 µM | 4.45 | 0.00497 µM and 0.0116 µM |  | 4.17 µM and 2.75 µM | 0.00567 µM | 3.99 | 5.5 µM and 6.36 µM | 2.11 µM | 7.91 µM and 4.8 µM | 2.61 µM | 4.56 µM and 3.77 µM | 18.2 | 0.00195 | 1.58 | 
3 | Cc1ccc(NC(=O)CC(=O)n2nc(-c3ccccc3)c(N=Nc3ccc(Cl)cc3)c2-c2ccccc2)cc1 |  | > 100 µM |  |  | 17.7 µM |  | > 100 µM |  | > 100 | 72 µM |  | > 100 µM |  | > 100 µM | > 100 |  |  | 60.4
4 | O=C1CC2CCCCC2=C1O (stereo not given) |  |  |  | > 100 | > 100 µM |  | > 100 µM |  | > 100 | > 100 µM |  | > 100 µM |  | > 100 µM | > 100 |  |  | > 100
5 | C/C(=N\NC(=O)CC(=O)Nc1ccc(Cl)cc1)c1cc2ccccc2oc1=O |  | > 100 µM |  | > 100 | > 100 µM |  | > 100 µM |  | > 100 | > 100 µM |  | > 100 µM |  | > 100 µM |  |  |  | > 100
6 | CC[C@@]1(O)C(=O)OCc2c1cc1n(c2=O)Cc2cc3cc(OC)ccc3nc2-1 |  | 0.063 µM and 0.0968 µM and 0.0206 µM |  | 0.0541 | 0.0172 µM | 0.00433 µM | 0.152 µM and 0.211 µM and 0.188 µM | 0.0273 µM |  |  |  | 0.0933 µM and 0.8 µM | 0.249 µM |  | 2.51 | 0.00873 |  | 1.48
7 | CC1C=C(OC(=O)c2ccccc2)C(=O)C(n2cc(F)c(=O)n(C(=O)c3ccccc3)c2=O)O1 (stereo not given) |  |  |  | > 100 | 50.1 µM |  | > 100 µM |  | > 100 | > 100 µM |  | > 100 µM |  | > 100 µM |  |  |  | > 100
8 | NC(=O)c1[nH]nc(C2OC(CO)C(O)C2O)c1O (stereo not given) |  | 2220 µM |  | 4010 | 63.7 µM |  | 415 µM |  | 386 | 2320 µM |  | 848 µM |  | 1020 µM |  |  |  | > 3890
9 | Nc1ccc(C#Cc2cncnc2Nc2ccc(OCc3cccc(F)c3)c(Cl)c2)cc1 | 10.6 µM | > 25 µM | > 14 µM | > 25 | > 25 µM | 15.7 µM | > 25 µM | > 20.5 µM | > 25 | > 25 µM | 10.6 µM | > 25 µM | 3.2 µM | > 25 µM |  | 5.68 | 3.58 | 
10 | C/C=C(\C)C(=O)O[C@@H]1C(O)[C@H]2OC(COC(=O)CCC(=O)CCCCCC[C@H](CCCCC)O[C@@H]3OC(C)[C@H](OC(C)=O)C(O)[C@H]3O2)[C@H]1OC(=O)/C=C/c1ccccc1 (stereo not given in full) | 0.0643 µM | 7.38 µM | < 0.01 µM | 6.39 | 18.9 µM | < 0.01 µM | > 60.9 µM | 0.293 µM | 62.3 | 5.98 µM | < 0.01 µM | 1.15 µM | < 0.01 µM | 8.34 µM |  | 0.127 | 0.0235 | 
11 | COC(=O)[C@]12CC[C@@H](C)[C@H](C)[C@@H]1C1=CC[C@@H]3[C@@]4(C)C(C=O)=C[C@@](C)(COC(C)=O)[C@@H]4[C@H](O)C[C@@]3(C)[C@]1(C)CC2 | 1.95 µM | 4.8 µM | 1.92 µM | 4.36 | 5.42 µM | 1.89 µM | 3.9 µM | 2.76 µM | 7.35 | 8.77 µM | 1.67 µM | 3.54 µM | 1.57 µM | 3.84 µM |  | 2.53 | 2.73 | 
12 | COC(=O)C1=C(C(=O)OC)C23C=CC=CC24C(C(=O)OC)=C(C(=O)OC)C4C1C3 (stereo not given) |  |  |  | > 100 | > 100 µM |  | > 100 µM |  | > 100 | > 100 µM |  | > 100 µM |  | > 100 µM | > 100 |  |  | > 100
13 | CC(CN)[C@@H]1CC[C@]2(CO)CC[C@]3(C)[C@H](CC[C@@H]4[C@@]5(C)CCC(NCCO)C(C)(C)[C@@H]5CC[C@]43C)[C@@H]12 (stereo not given in full) | 3.94 µM | 17.5 µM | 1.6 µM | 2.95 | 7.47 µM | 1.79 µM | 3.43 µM | 2.29 µM | 5.47 | 3.88 µM | 1.74 µM | 3.4 µM | 2.43 µM | 9.57 µM |  | 2.65 | 1.81 | 
14 | O=C(O)CCC1COc2ccccc2O1 (stereo not given) |  | > 10 µM |  | > 10 | > 10 µM |  | > 10 µM |  | > 10 | > 10 µM |  | > 10 µM |  | > 10 µM |  |  |  | 
15 | COc1cccc(/C=C/C(=O)c2ccc(Cl)cc2Cl)c1OC | 9.96 µM | 29.6 µM | 6.19 µM | 18.7 | 5.85 µM | 8.37 µM | > 100 µM | 13.7 µM | 26.6 | 27 µM | 15 µM | 32.5 µM | 3.43 µM | 17.4 µM |  | 2.4 | 13.5 | 
16 | CN1CCN(c2ccc(-c3cnc4c(-c5csc6ccccc56)cnn4c3)cc2)CC1 | 13.5 µM | > 15 µM | 4.38 µM | > 15 | > 15 µM | 2.14 µM | 4.41 µM | 6.06 µM | > 15 | > 15 µM | > 15 µM | > 15 µM | 10.3 µM | > 15 µM |  | 5.89 | 8.37 | 
17 | Cc1cc(O)c2c(c1)C(=O)c1cc(O)cc(O)c1C2=O |  | > 70.9 µM |  | > 96.3 | 76.5 µM |  | > 78.4 µM |  | > 63.6 | > 81.1 µM |  | > 83.1 µM |  |  | 85.3 |  |  | 
18 | Cc1cc(S(=O)(=O)Nc2nc3ccsc3c(=O)n2Cc2ccco2)c(S)cc1Cl | > 100 µM | > 100 µM | 96.3 µM | > 100 | > 100 µM | 60.6 µM | > 100 µM | > 100 µM | > 100 | > 100 µM | 62.8 µM | > 100 µM | > 100 µM | > 100 µM |  | 25.5 | > 100 | 
19 | N#CC1C(=N)Cc2ccccc2-c2ccccc21 (stereo not given) | 11.4 µM | > 100 µM | 4.15 µM | 20.6 | 16.6 µM | 3.92 µM | 18.3 µM | 11.2 µM | 68.8 | 63.6 µM | 2.21 µM | 9.36 µM | 4.06 µM | 31.2 µM |  | 3.23 | 20.2 | 
20 | CC12O[C@H](c3ccccc3)[C@H](c3ccccc3)N1C(=O)C1(C(=O)OCc3ccccc3)CC12 (stereo not given in full) |  | > 100 µM |  |  | > 100 µM |  | > 100 µM |  |  |  |  | > 100 µM |  | > 100 µM | > 100 |  |  | > 100
21 | O=C1C=CC(=O)C1(Br)Br |  | 38.2 µM |  | 29.1 | 49 µM |  | 41.6 µM |  | 39.9 | 10.4 µM |  | 34.1 µM |  | 18.7 µM |  |  |  | 
22 | NCCNCC(O)CO (stereo not given) |  | > 100 µM |  | > 100 | > 100 µM |  | > 100 µM |  | > 100 | > 100 µM |  | > 100 µM |  | > 100 µM |  |  |  | 
23 | O=c1cccc(C#Cc2ccccc2)o1 | 13.2 µM | > 36.3 µM | 9.2 µM | > 36.4 | 8.17 µM | 3.91 µM | > 100 µM | 4.42 µM | 12.2 | 22.7 µM | 5.03 µM | 13.8 µM | 3.41 µM | > 35.1 µM |  | 0.71 | 6.06 | 
24 | COc1ccc2nc(NCCCNCCO)c3sc4ccc(F)cc4c(=O)c3c2c1 | 1.74 µM | 3.49 µM | 1.62 µM | 3.38 | 3.87 µM | 1.53 µM | 3.02 µM | 1.73 µM | 3.27 | 3.3 µM | 1.73 µM | 3.22 µM | 1.46 µM | 2.8 µM |  | 1.92 | 1.72 | 
25 | N#Cc1c[nH]n2ccnc12 |  | > 100 µM |  | > 100 | > 100 µM |  | > 100 µM |  | > 100 | > 100 µM |  | > 100 µM |  | > 100 µM |  |  |  | 
26 | COc1cc2cc(Oc3ccc(NC(=O)Nc4ccccc4)cc3)c(C)nc2cc1OCCN1CCCCC1 | 5.82 µM | 12 µM | 5.32 µM | 11.4 | 13.3 µM | 6.05 µM | 11.2 µM | 6.4 µM | 13.7 | 17.3 µM | 6 µM | 11.2 µM | 3.87 µM | 7.94 µM |  | 6.43 | 8.3 | 
27 | N/N=C1\c2ccccc2C2/C(=N\N)c3ccccc3C12 (stereo not given) |  |  |  | > 100 | > 100 µM |  | > 100 µM |  | > 100 | > 100 µM |  | > 100 µM |  |  | > 100 |  |  | > 100
